One assay has as its system AKR1B1. Conditions: cited from earlier work.
Assay [1] has as its target T1, human recombinant AKR1B1 (Homo sapiens, UniProt P15121).
T1 construct: made in house
In words: AKR1B1 activity inhibition, decrease in absorbance at 340 nm linked to NADPH oxidation. The format is biochemical. Conditions: for remaining activity at 800 µM: in the presence of 0.8 mM compound, read-out: residual activity; for IC50: 10 mU AKR1B1, 37 °C, pH 6.8, 95% CLs in text. On the procedure:
(§1) The AKR1B1 activity was determined at 37 °C, as previously described, monitoring the decrease in absorbance at 340 nm linked to NADPH oxidation (ε340 = 6.22 mM^−1·cm^−1) using a Biochrom Libra S60 spectrophotometer. The standard assay mixture (0.7 mL) contained 0.25 M sodium phosphate buffer pH 6.8, 0.18 mM NADPH, 0.4 M ammonium sulfate, 0.5 mM EDTA, and 4.7 mM GAL. One unit of enzyme activity is the amount of enzyme that catalyzes the conversion of 1 µmol of substrate/min in the above assay conditions.
IC50 values were determined by non-linear regression analysis using GraphPad Prism version 7.04 (GraphPad Software, San Diego, CA, USA). Values were obtained from at least six different inhibitors concentrations (each assayed at least in triplicate) and are reported with their 95% Confidence Limits (CLs). […] The final concentration of ethanol in the assay was never higher than 1%. […] The percentage of inhibition was calculated referring to an assay performed using the same solvent concentration in the absence of inhibitors.
(§2) The human recombinant AKR1B1 was expressed and purified to electrophoretic homogeneity, as previously described. […] The purified enzyme was stored at −80 °C in a 10 mM sodium phosphate buffer pH 7.0 containing 2 mM DTT and 30% (w/v) glycerol. Before use, AKR1B1 was extensively dialyzed against 10 mM sodium phosphate buffer pH 7.0.

The subject of assay [2] is human AKR1B1. Further details: method as in PMID 32640594. Conditions: in the absence of GCG; cited from earlier work.
Assay [3] has as its target T1, human recombinant AKR1B1. Briefly: Inhibition kinetic analysis of AKR1B1-dependent reduction of L-idose, HNE and GSHNE. The format is biochemical. Conditions: for Km: in the absence of inhibitors, read-out: KM of the substrate; for Km / kcat (k+2) of the substrate: at least 20 independent experiments; for kcat (k+2) of the substrate: in the absence of the inhibitor; for k+4: kinetic constant of ternary complex EIS to products. The method, then: as §1, §2
The kinetic parameters ^appkcat and ^appKM were evaluated by non-linear regression analysis of rate measurements vs. substrate concentration according to Michaelis-Menten equation. The analysis was performed through GraphPad Prism 7.04 software by a non-linear “Robust Regression” analysis in which each point is individually weighted through iterative weighing of the smallest squares. The same approach was adopted to analyze the dependence of ^appkcat, ^appKM, and ^appKM/^appkcat from the concentration of the inhibitors [I], making use of previously derived equations [27] (see text).
The hyperbolic kinetic equation for an incomplete mixed type of inhibition analyzed with both branches of product formation at the steady state and with the inhibitor binding at equilibrium, was defined using the apparent kinetic parameters ^appKM and ^appkcat (Equations (1)–(3), see ref [27] for further details). (1) kappcat=Ki*k+2+k+4[I]/Ki*+[I] (2) appKM=KMKi*+(Ki*/KiKM+k+4/k+1)[I]+k+4/Kik+1[I]^2/Ki*+[I] (3) appKM/appkcat= KMKi*+(Ki*/KiKM+k+4/k+1)[I]+k+4/Kik+1[I]^2/Ki*k+2+k+4[I]
Thus, ^appkcat and ^appKM values emerging from non-linear regression analysis of primary data (Figure 3) were analyzed through non-linear regression using Equations (1) and (2), respectively. […] The above starting values of kcat and KM derived from at least 20 independent experiments in which kinetic parameters were measured in the absence of inhibitors. […] The k+4 values are reported in Table 1 as the average of values emerging from ^appKM/^appkcat versus [I] (Equation (3) or Equation (4)) and 1/^appkcat versus [I] (Equation (1)) plots.

Assay [4] has as its system human AKR1B1. In words: Docking, MD simulations and MM-PBSA binding free energy evaluations. On the procedure:
The X-ray structure of human AKR1B1 in complex with D-glyceraldehyde and the NADP cofactor (PDB code 3V36), as well as the co-crystal structure of human AKR1B1 in complex with a nitrofuryl-oxadiazol inhibitor (PDB code 2IKH), were downloaded from the Protein Data Bank. Molecular docking calculations were performed with GOLD 5.1 (CCDC Software Ltd., Cambridge, UK) with the Piecewise Linear Potential (PLP) fitness function; both the two X-ray structures and the previously predicted protein–substrate complexes (i.e., AKR1B1-L-idose, AKR1B1-HNE, and AKR1B1-GSHNE) were employed as the protein. […] When protein–substrate complexes were used as the receptor, the ten top-scored clusters of solutions in which the ligand formed at least one H-bond with the substrate were selected as the best clusters of solutions, which were considered for further analyses.
Molecular dynamics (MD) simulations were performed with AMBER 20 [32] using the ff14SB force field. General Amber force field (GAFF) parameters were used for the ligands, the substrates, and the cofactor, whose partial charges were calculated with the AM1-BCC method as implemented in the Antechamber suite of AMBER 20 (University of California, San Francisco, CA, USA). […] Each analyzed complex was placed in a rectangular parallelepiped water box, using the TIP3P explicit solvent model for water, and solvated with a 15 Å water cap. […]

The mark [5] stands for this setting: HNE reduction, calculated using k+2 78 ± 4 min^−1.
Where [6] appears, read: L-idose reduction, calculated using k+2 195 ± 6 min^−1.
[7] abbreviates: GSHNE reduction, calculated using k+2 109 ± 8 min^−1.

Entries after “also recorded” stand apart in the source; their conditions may differ.

On to `O=C(O[C@@H]1Cc2c(O)cc(O)cc2O[C@@H]1c1cc(O)c(O)c(O)c1)c1cc(O)c(O)c(O)c1` [EGCG, epigallocatechin gallate], for which the “inhibitory action on AKR1B1 (in words)” value in the assay with AKR1B1 was “preserved only HNE reduction; also recorded: act as ARDIs, even though not complete”.

On to `Oc1cc(O)c2c(c1)O[C@H](c1cc(O)c(O)c(O)c1)[C@H](O)C2` [EGC, epigallocatechin], for which the “inhibitory action on AKR1B1 (in words)” value in the assay on AKR1B1 is “inhibits AKR1B1 irrespective of the used substrate”.

In the case of `Oc1cc(O)c2c(c1)O[C@H](c1cc(O)c(O)c(O)c1)[C@@H](O)C2` [GC, gallocatechin], the remaining activity at 800 µM on human recombinant AKR1B1 [1] was ~70%.

Turning to `CCCCCC(O)/C=C/C=O` (centres unmarked) [HNE, 4-hydroxynonenal], the “binding affinity estimated for the substrate bound to AKR1B1” value in the assay on human AKR1B1 [2] was -18.6 kcal/mol. On human recombinant AKR1B1 [3], the Km is 51 ± 5 µM and the “kcat (k+2) of the substrate” value is 78 ± 4 min⁻¹.

As to `O=C(O[C@@H]1Cc2c(O)cc(O)cc2O[C@H]1c1cc(O)c(O)c(O)c1)c1cc(O)c(O)c(O)c1` [GCG, gallocatechin gallate], the inhibition type entry at human recombinant AKR1B1 [3] (GSHNE reduction) was “uncompetitive inhibition”; on human recombinant AKR1B1 [3] (L-idose reduction), “mixed inhibition type”. In addition, the “k+4” value at human recombinant AKR1B1 [3] (GSHNE reduction) came to 6.0 ± 1.0 min⁻¹; at human recombinant AKR1B1 [3] (HNE reduction) it was 9.5 ± 0.9 min⁻¹; at human recombinant AKR1B1 [3] (L-idose reduction), 5.6 ± 0.5 min⁻¹. In addition, the “k+4/k+2 (%)” value on human recombinant AKR1B1 [3] (setting [5]) is reported as 12.2 ± 1.1%; at human recombinant AKR1B1 [3] (setting [6]), 2.9 ± 0.25%.

For the compound `C[C@@H]1O[C@@H](O[C@H]2[C@H](O[C@H]3[C@H](O[C@H]4CC[C@@]5(C)[C@@H](CC[C@]6(C)[C@@H]5CC=C5[C@@H]7CC(C)(C)C[C@@H](O)[C@]7(C)CC[C@]56C)[C@@]4(C)CO)O[C@H](C(=O)O)[C@@H](O)[C@@H]3O)O[C@H](CO)[C@H](O)[C@@H]2O)[C@H](O)[C@H](O)[C@H]1O` [soyasaponin Bb], in the assay with AKR1B1, the “inhibitory action on AKR1B1 (in words)” value was “acting as ARDI”.

Take `O=C(O)c1cc(O)c(O)c(O)c1` [GA, gallic acid]: the “inhibitory action on AKR1B1 (in words)” value with AKR1B1 was “act as ARDIs, even though not complete”.

For `Oc1cc(O)c2c(c1)O[C@H](c1ccc(O)c(O)c1)[C@H](O)C2` [EC, epicatechin], at human recombinant AKR1B1 [1], the remaining activity at 800 µM was ~70%.

For `CCCCCC(O)C(CC=O)SC[C@H](NC(=O)CC[C@H](N)C(=O)O)C(=O)NCC(=O)O` (some centres unmarked) [GSHNE, 3-glutathionyl-4-hydroxynonanal adduct], in the assay on human AKR1B1 [2], the “binding affinity estimated for the substrate bound to AKR1B1” value is -30.3 kcal/mol. Moreover, on human recombinant AKR1B1 [3], the Km came out at 120 ± 16 µM and the “kcat (k+2) of the substrate” value came out at 109 ± 8 min⁻¹.

Take `O=C[C@H](O)[C@@H](O)[C@H](O)[C@@H](O)CO` [L-idose]: the “increase in the binding affinity of the substrate for the complex” value in the assay on human AKR1B1 [4] (due to the presence of GCG) is recorded as 32%. The “lowering of substrate binding free energy with GCG versus without” value in the assay on human AKR1B1 [4] (presence versus absence of GCG) is 5.5 kcal/mol. Besides, the “binding affinity estimated for the substrate bound to AKR1B1” value with human AKR1B1 [2] is -17.4 kcal/mol. For the same compound, at human recombinant AKR1B1 [3], the Km stood at 4260 ± 300 µM and the “kcat (k+2) of the substrate” value amounted to 195 ± 6 min⁻¹.

Turning to `O=C(O[C@@H]1Cc2c(O)cc(O)cc2O[C@@H]1c1ccc(O)c(O)c1)c1cc(O)c(O)c(O)c1` [ECG, epicatechin gallate], the IC50 came to 143 µM at human recombinant AKR1B1 [1] (IC50 for GSHNE reduction, […] GSHNE as substrate); 257 µM at human recombinant AKR1B1 [1] (IC50 for HNE reduction, 0.03 mM HNE as substrate); 67 µM on human recombinant AKR1B1 [1] (IC50 for the reduction of L-idose, 8 mM L-idose as substrate). Also, the “Ki/Ki*” value at human recombinant AKR1B1 [3] (GSHNE reduction) is recorded as “approximately 2”. The inhibition type entry on human recombinant AKR1B1 [3] (GSHNE reduction) and at human recombinant AKR1B1 [3] (L-idose reduction) was “mixed inhibition type” each time. Also, the “k+4/k+2 (%)” value at human recombinant AKR1B1 [3] (setting [7]) is 14.3 ± 3.9%; at human recombinant AKR1B1 [3] (setting [5]), 8.6 ± 0.4%; at human recombinant AKR1B1 [3] (setting [6]), 2.7 ± 1.7%. Further, the “k+4” value on human recombinant AKR1B1 [3] (GSHNE reduction) turned out to be 15.6 ± 4.3 min⁻¹; on human recombinant AKR1B1 [3] (HNE reduction), 6.7 ± 2.7 min⁻¹; on human recombinant AKR1B1 [3] (L-idose reduction) it was 5.2 ± 3.2 min⁻¹. Moreover, the Ki on human recombinant AKR1B1 [3] (Ki*, GSHNE reduction, apparent dissociation constant of ternary complex EIS) is 46 ± 11 µM; on human recombinant AKR1B1 [3] (Ki*, HNE reduction, apparent dissociation constant of ternary complex EIS), 54 ± 9 µM; on human recombinant AKR1B1 [3] (Ki*, L-idose reduction, apparent dissociation constant of ternary complex EIS), 46 ± 5 µM; on human recombinant AKR1B1 [3] (Ki, GSHNE reduction, dissociation constant of enzyme-inhibitor complex) it was 91 ± 10 µM; at human recombinant AKR1B1 [3] (Ki, HNE reduction, dissociation constant of enzyme-inhibitor complex) it was > 10000 µM; on human recombinant AKR1B1 [3] (Ki, L-idose reduction, dissociation constant of enzyme-inhibitor complex), 116 ± 8 µM.

Consider catechin gallate [CG], for which the inhibition type entry on human recombinant AKR1B1 [3] (GSHNE reduction) is “uncompetitive inhibition”; at human recombinant AKR1B1 [3] (L-idose reduction), “mixed inhibition type”. Besides, the “k+4/k+2 (%)” value on human recombinant AKR1B1 [3] (setting [7]) is 3.8 ± 0.8%; on human recombinant AKR1B1 [3] (setting [5]) it was “approximately 6%”; on human recombinant AKR1B1 [3] (setting [6]), 0.7 ± 0.3%. For the same compound, the “k+4” value on human recombinant AKR1B1 [3] (GSHNE reduction) was 4.1 ± 0.8 min⁻¹; on human recombinant AKR1B1 [3] (HNE reduction), 4.7 ± 0.7 min⁻¹; at human recombinant AKR1B1 [3] (L-idose reduction), 1.4 ± 0.6 min⁻¹.

The Km is the concentration of substrate that gives half-maximal velocity. A word on the IC50: it is the concentration that gives 50% inhibition.

(Values after PMC9495972, “Dissecting the Activity of Catechins as Incomplete Aldose Reductase Differential Inhibitors through Kinetic and Computational Approaches” (Biology, 2022).)
